Key:
IFN-α gene = IFN-α gene expression in human mononuclear cells (RT-PCR); assay type: cell-based; conditions: 40 μg/ml, 18 h; for expression of the IFN-α gene compared to the LALF32-51 peptide: FIG. 3B; for expression of the IFN-α gene: mRNA normalized against β-actin, FIG. 3A
Protocol: (§1) For this assay, human mononuclear cells were isolated by a Ficoll-Hypaque gradient from a leukocyte concentrate or “Buffy Coat” of a donor. Up to 5×10^6 were seeded in 24-well plates in RPMI 1640 medium supplemented with 10% calf fetal serum. Each peptide was further added at 40 μg/ml in a 0.1 ml volume of RPMI medium and cells were cultured for 18 h at 37° C. and 5% of CO2. Total RNA was extracted by using the TriReagent method. Afterwards, the expressions of IFN-α, IFN-γ and IL-12 genes were determined by the reverse transcription reaction and PCR amplification (RT-PCR kit, Perkin Elmer). Results are shown as relative amounts of messenger RNA normalized against expression levels of the β-actin housekeeping gene.

[1] = competition ELISA for LPS-binding capacity; parameters: species or system E. coli; conditions: competition with biotinylated LALF32-51 at 0.2 μM; analogous peptides 10 μM to 0.01 μM; FIG. 1A
Protocol: This assay consists on a competition ELISA system (Hardy E., et al (1994) Enhanced ELISA sensitivity using TCA for efficient coating of biologically active LPS or Lipid A to the solid phase. J. Immunol. Meth. Vol. 176:111-116). Polystyrene plates (Costar, USA) were coated with LPS from E. coli 0111:B4 (1 μg/ml) with 0.2% trichloroacetic acid (TCA). Plates were incubated overnight at 37° C. and further washed ten times with 1× phosphate-buffered saline (1×PBS) plus 0.1% tween-20 (washing solution). The binding of analogous peptides to the LPS fixed to the solid surface was evaluated by a competition ELISA with the biotinylated LALF32-51 peptide at 0.2 μM, obtaining a 90% of maximum LPS binding. To estimate the inhibition curves, different concentrations of the analogous peptides were used, from 10 μM to 0.01 μM and the curve of the LALF32-51 peptide as experimental control. The biotinylated LALF32-51 was incubated in the presence of the analogous peptides for 2 h at 37° C. and plates were washed 5 times after that time with washing solution. The biotinylated LALF32-51 bound to LPS was detected by incubating for 45 min at 37° C. with a streptavidin-peroxidase conjugate at a 1:2,000 dilution. Plates were washed 5 times with washing solution and the substrate solution was added (0.05 M citrate-phosphate buffer, pH 5.5, 1 tablet of 3,3′,5,5′-tetramethylbenzidine and 0.025% hydrogen peroxide). After 15 min incubation, the reaction was stopped by adding 2 M sulphuric acid. The absorbance was quantified at 450 nm in a plate reader (Sensident Scan). There is a correlation between optical density values and the LPS-binding capacity of analogous peptides. Analogous peptides with higher LPS-binding capacity show inhibition curves of lower O.D. compared to the inhibition curve of the LALF32-51 peptide.
Analogous peptides with lower LPS-binding capacity present inhibition curves with […], compared to the inhibition curve of the LALF32-51 peptide.
FIG. 1B represents the inhibition percentages of analogous peptides, at a fixed […] concentration, according to their capacity to displace the binding of the biotinylated LALF32-51 (0.2 μM) to LPS adsorbed to the solid surface. % de inhibición={1−(([O.D.]sample−[O.D.]min)/([O.D.]max−[O.D.]min))}×100 [O.D.] sample: Optical density value in the presence of a fixed concentration of analogous peptides; [O.D.] min: ELISA background; [O.D.] max: Optical density value without analogous peptides.

[2] = competition ELISA for heparin-binding capacity; conditions: for heparin binding: peptides at 2 μM with 250 units of heparin, FIG. 2
Protocol: This assay consists on a competition ELISA system, similar to the previously described one. The biotinylated LALF32-51 peptide was adsorbed to polystyrene plates (Costar, USA) in 1×PBS and incubated overnight at 4° C. Analogous peptides L-2, L-8, L-12 and L-20 were mixed at 2 μM with 250 units of heparin (Sodic Heparin, 5,000 U/ml, Liorad) in 1×PBS plus 0.1% of bovine serum albumin (BSA). Afterwards, mixes were added to an ELISA plate containing 0.02 μM of the biotinylated LALF32-51 peptide adsorbed to the solid surface. After a 1 h-incubation at room temperature, plates were washed five times with washing solution and the biotinylated LALF32-51 peptide fixed to the solid surface was detected by incubating for 45 min at 37° C. with streptavidin-peroxidase conjugate at a 1:2,000. Afterwards, plates were washed five times with washing solution and the substrate solution was added. After an additional incubation for 15 min, the reactions were stopped with 2 M sulphuric acid solution. The lack of heparin binding to the analogous peptides correlates with the […] optical density, because they are unable to displace the heparin bound to the biotinylated LALF32-51 peptide adsorb to the solid surface. The unlabeled LALF32-51 peptide at a 100× molar excess was used as control of the assay.

IFN-γ gene = IFN-γ gene expression in human mononuclear cells (RT-PCR); assay type: cell-based; conditions: 40 μg/ml, 18 h; mRNA normalized against β-actin; FIG. 3A
Protocol: as §1

TC-1 tumor cells = assay: anti-tumoral effect in the TC-1 tumor model; assay type: in vivo; conditions: 4 mg per kg s.c.; for survival of mice / tumor progression (tumor mass): at 100 mm^3 tumor volume and after 10 days, FIG. 4; for survival of animals compared to the LALF32-51 peptide: Log Rank, *p<0.05
Protocol: Eight-to-ten weeks-old C57BI/6 female mice were used for this assay (n=10 animals per experimental group). For tumor graft, TC-1 tumor cells derived from C57BI/6 malignant epithelial lung cells were used, being resuspended in phosphate-buffered saline (PBS). An amount of 50,000 cells in a 200 μl volume was inoculated to mice by subcutaneous route in the right hind limb. The first peptide administration was carried out by subcutaneous route in the right flank once tumor reached a 100 mm^3 volume, and the second was carried out after 10 days. In this assay, a 4 mg per kg of weight dose was evaluated (80 μg/mice). Animal survival and tumor mass were the parameters evaluated to measure the anti-tumoral effect peptides of interest, as shown in FIGS. 4A and 4B. […] The Log Rank method was used as statistical analysis for detecting significant differences between groups.

IL-12 gene = IL-12 gene expression in human mononuclear cells (RT-PCR); assay type: cell-based; conditions: 40 μg/ml, 18 h; mRNA normalized against β-actin; FIG. 3A
Protocol: as §1

Sequence	expression of the IFN-α gene compared to the LALF32-51 peptide (IFN-α gene)	expression of the IFN-α gene (IFN-α gene)	LPS-binding capacity [1]	heparin binding [2]	expression of the IFN-γ gene (IFN-γ gene)	survival of mice (TC-1 tumor cells)	tumor progression (tumor mass) (TC-1 tumor cells)	survival of animals compared to the LALF32-51 peptide (TC-1 tumor cells)	expression of the IL-12 gene (IL-12 gene)	heparin binding (assay control) ([2]; unlabeled peptide at a 100× molar excess)
HYRIKPTARRLKWKYKGKFW [Peptide L-8, alanine-substituted analogue of LALF 32-51]	more effective	capable of inducing the expression	lose the capacity to bind LPS	unable to bind heparin	capable of inducing the expression	prolonging survival of mice	effective for inhibiting tumor progression	significantly increase the survival of animals	capable of inducing the expression	–
HYAIKPTFRRLKWKYKGKFW [Peptide L-3, alanine-substituted analogue of LALF 32-51]	–	–	higher LPS binding capacity	–	–	–	–	–	–	–
HYRIKPTFRRLAWKYKGKFW [Peptide L-12, alanine-substituted analogue of LALF 32-51]	more effective	capable of inducing the expression	lose the capacity to bind LPS	unable to bind heparin	capable of inducing the expression	prolonging survival of mice	effective for inhibiting tumor progression	significantly increase the survival of animals	capable of inducing the expression	–
HYRIKPTFRRLKWKYKGKAW [Peptide L-19, alanine-substituted analogue of LALF 32-51]	–	–	retaining that capacity	–	–	–	–	–	–	–
HYRIKPTFARLKWKYKGKFW [Peptide L-9, alanine-substituted analogue of LALF 32-51]	–	–	retaining that capacity	–	–	–	–	–	–	–
HYRIKPTFRRLKWKYKGKFW [LALF32-51, reference compound]	–	–	–	–	–	–	–	–	–	binding to heparin
HYRIKPTFRRLKWKYKGKFA [Peptide L-20, alanine-substituted analogue of LALF 32-51]	–	capable of inducing the expression	lose the capacity to bind LPS	unable to bind heparin	capable of inducing the expression	prolonging survival of mice	effective for inhibiting tumor progression	significantly increase the survival of animals	capable of inducing the expression	–

— patent US8283324B2, “Immunomodulatory and anti-tumour peptides” (Centro de Ingenieria Genetica y Biotecnologia, priority 2006, dated 2012)
